Reference: article PMC6143291 (The Journal of organic chemistry, 2017)
Values after ≈ are worked out from the molar mass of the structure shown.

Test system: Mtb H37Rv
Test: Microplate Alamar blue assay
Format: cell-based, Mycobacterium tuberculosis
Settings: MABA, 2-fold serial dilution, read on day seven

Question: How did the MIC turn out when O=c1c2ccccc2[se]n1C12CC3CC(CC(C3)C1)C2 [1l, 2-((3R,5S)-Adamantan-1-yl)benzo[d][1,2]-selenazol-3(2H)-one] was run?
Answer: Its MIC is 50 µg/mL (≈ 150 µM).

Target: Mtb Ag85C (Mycobacterium tuberculosis, UniProt P9WQN9)
Sequence (P9WQN9 46-340 limits assumed): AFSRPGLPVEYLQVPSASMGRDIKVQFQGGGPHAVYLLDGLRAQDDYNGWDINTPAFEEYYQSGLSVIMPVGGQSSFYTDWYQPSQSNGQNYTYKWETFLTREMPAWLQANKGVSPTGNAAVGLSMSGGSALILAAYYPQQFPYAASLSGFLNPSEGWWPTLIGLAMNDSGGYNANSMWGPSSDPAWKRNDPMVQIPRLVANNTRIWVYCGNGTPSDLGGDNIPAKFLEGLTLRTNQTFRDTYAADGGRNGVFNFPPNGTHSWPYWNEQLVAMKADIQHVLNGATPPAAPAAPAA
Test: Fluorometric resorufin butyrate assay, apparent IC50 after 15 min incubation
Format: biochemical
Settings: not given

Question: How did the IC50 turn out when O=c1c2ccccc2[se]n1-c1ccccc1 [1a, 2-Phenylbenzo[d][1,2]selenazol-3(2H)-one, reference compound] was run?
Answer: Its IC50 is 5120 nM.

Question: For COc1ccc(Cn2[se]c3ccccc3c2=O)cc1 [1b, 2-(4-Methoxybenzyl)benzo[d][1,2]selenazol-3(2H)-one], which IC50 is on record?
Answer: Its IC50 is 540 nM.

Question: How did the IC50 turn out when COc1ccccc1Cn1[se]c2ccccc2c1=O [1c, 2-(2-Methoxybenzyl)benzo[d][1,2]selenazol-3(2H)-one] was run?
Answer: The IC50 was 28600 nM.

Question: With COc1ccc(-n2[se]c3ccccc3c2=O)cc1 [1d, 2-(4-Methoxyphenyl)benzo[d][1,2]selenazol-3(2H)-one] as the compound, how does the IC50 read?
Answer: The IC50 was 1200 nM.

Question: For O=c1c2ccccc2[se]n1Cc1ccccc1 [1e, 2-Benzylbenzo[d][1,2]selenazol-3(2H)-one], which IC50 is on record?
Answer: The IC50 was 6500 nM.

Question: For O=c1c2ccccc2[se]n1CC1CCCCC1 [1g, 2-(Cyclohexylmethyl)benzo[d][1,2]selenazol-3(2H)-one], which IC50 is on record?
Answer: The IC50 was 5300 nM.

Question: Which IC50 does the source give for O=c1c2ccccc2[se]n1-c1ccc(F)cc1 [1h, 2-(4-Fluorophenyl)benzo[d][1,2]selenazol-3(2H)-one] here?
Answer: Its IC50 is 720 nM.

Question: O=c1c2ccccc2[se]n1-c1ccccc1F [1i, 2-(2-Fluorophenyl)benzo[d][1,2]selenazol-3(2H)-one] was tested. Which IC50 did it give?
Answer: Its IC50 is 1000 nM.

Question: With [N-]=[N+]=Nc1ccc(-n2[se]c3ccccc3c2=O)cc1 [1j, 2-(4-Azidophenyl)benzo[d][1,2]selenazol-3(2H)-one] as the compound, how does the IC50 read?
Answer: The IC50 was 1100 nM.

Question: With CC(C)(C)n1[se]c2ccccc2c1=O [1k, 2-(tert-Butyl)benzo[d][1,2]selenazol-3(2H)-one] as the compound, how does the IC50 read?
Answer: Its IC50 is 1500 nM.

Question: With O=c1c2ccccc2[se]n1C1CCCC1 [1m, 2-Cyclopentylbenzo[d][1,2]selenazol-3(2H)-one] as the compound, how does the IC50 read?
Answer: The IC50 was 4100 nM.

Question: How did the IC50 turn out when O=c1c2ccccc2[se]n1C1CCCCC1 [1n, 2-Cyclohexylbenzo[d][1,2]selenazol-3(2H)-one] was run?
Answer: Its IC50 is 3700 nM.

Question: For [N-]=[N+]=Nc1ccc(NC(=O)c2ccccc2[Se]C#Cc2ccccc2)cc1 [compound 8, N-(4-Azidophenyl)-2-((phenylethynyl)selanyl)-benzamide], which IC50 is on record?
Answer: The IC50 was greater than 100000 nM.

Question: O=C(CCCCC1SC[C@@H]2NC(=O)N[C@H]12)NCCOCCOCCOCCNC(=O)CCC(=O)N1Cc2ccccc2-c2nnn(-c3ccc(-n4[se]c5ccccc5c4=O)cc3)c2-c2ccccc21 (stereo partly drawn) [compound 10, N-(13,16-Dioxo-16-(3-(4-(3-oxobenzo[d][1,2]-selenazol-2(3H)-yl)phenyl)-3,9-dihydro-8H-dibenzo[b,f][1,2,3]-triazolo[4,5-d]azocin-8-yl)-3,6,9-trioxa-12-azahexadecyl)-5-((3aS,6aR)-2-oxohexahydro-1H-thieno[3,4-d]imidazol-4-yl)-pentanamide] was tested. Which IC50 did it give?
Answer: Its IC50 is 2020 nM.
